A short description of this data set: Human HepG2 cell viability assay in 384 well format. The format is toxicity, cell-based. Also on record: dose 125 nL, time 70.5 hour; concentration not given beside the values. As to conditions: HepG2 cells, read-out: Inhibition.
Regarding `O=C(c1c[nH]c2ncccc12)N1CCC(COc2ccccc2)CC1`, the cytotoxicity at 70.5 h was found to be 10.4%.

As for `CS(=O)(=O)c1ccc(CNC(=O)NCC2CCOC2)cc1` (centres undefined), the cytotoxicity at 70.5 h amounted to 4.53%.

Consider `CCn1nc(CC(C)C)cc1C(=O)N1CCN([C@H]2CCCC[C@@H]2O)CC1`, for which the cytotoxicity at 70.5 h was -2.99%.

For `c1cnnc(N2CCCC(NCc3ccncc3)C2)c1` (centres undefined), the cytotoxicity at 70.5 h is -4.07%.

For the compound `CN1C[C@@H]2CC[C@H](CC1=O)N2C(=O)c1cc2ccccc2[nH]c1=O`, the cytotoxicity at 70.5 h was -6.85%.

On to `CC(C)NC(=O)NCc1ccccc1NS(=O)(=O)c1ccccc1`, for which the cytotoxicity at 70.5 h is 12.7%.

For `CCOc1ccccc1C(=O)N1CCCC(c2nccn2CCOC)C1` (centres undefined), the cytotoxicity at 70.5 h was determined as 10.7%.

With `CSc1ccc(CN(CCO)C(=O)CCNC(C)=O)cc1`, the cytotoxicity at 70.5 h was -14.7%.

`O=C(NC[C@]1(O)CN(Cc2ccc(F)cc2)C[C@H]1O)c1ccccn1`: the cytotoxicity at 70.5 h is -6.05%.

On to `Cc1nn(C)c2c(=O)n(CC(=O)Nc3cc(Cl)cc(Cl)c3)nnc12`, for which the cytotoxicity at 70.5 h was -0.624%.

`CCS(=O)(=O)N1CCc2nc(C3CCN(C(=O)C4CC4)C3)nc(O)c2C1` (centres undefined): the cytotoxicity at 70.5 h is -1.94%.

Take `Cn1cc(CN2CCCC3(CCN(C(=O)c4cnccn4)C3)C2)cn1` (centres undefined): the cytotoxicity at 70.5 h is 11.1%.

`CN(C(=O)Cc1ccccc1F)C1CCN(c2ccccn2)CC1`: the cytotoxicity at 70.5 h is -3.14%.

As for `O=C(c1ccc[nH]1)N1CCCn2c(nnc2Cn2cccn2)C1`, the cytotoxicity at 70.5 h is -9.08%.

`CN(Cc1cccnc1)C[C@H]1OC[C@@H]2CCN(c3ncccn3)C[C@@H]21`: the cytotoxicity at 70.5 h is -0.858%.

For `CC(Cn1ccnc1)NC(=O)C1(c2cccc(Cl)c2)CC1` (centres undefined), the cytotoxicity at 70.5 h is -1.52%.

In the case of `CC(C)n1cc(CN2CCCN(C(=O)c3ccc[nH]3)CC2)cn1`, the cytotoxicity at 70.5 h was -5.05%.

Consider `FC(F)CN1CCC(NCc2ccc(-n3cccn3)nc2)CC1`, for which the cytotoxicity at 70.5 h was -9.95%.

With `COC(=O)c1cccn1C1CCN(Cc2ccccc2)CC1`, the cytotoxicity at 70.5 h was found to be 15.7%.

Regarding `O=C(NCCN1CCCC1)c1nc2c(o1)CN(C(=O)c1cccnc1)C2`, the cytotoxicity at 70.5 h is -1.83%.

In the case of `Cn1cc(CN2C[C@H]3CCC[C@@H](CNc4nccn4C)[C@H]3C2)cn1`, the cytotoxicity at 70.5 h was -3.76%.

As for `COCCn1cc(CC(=O)Nc2nc3c(s2)CCC3)c2ccccc21`, the cytotoxicity at 70.5 h is -6.21%.

On to `CNC(=O)CS(=O)(=O)Cc1coc(-c2ccc(F)cc2)n1`, for which the cytotoxicity at 70.5 h was -9.1%.

As for `CCOCc1nn(C)c2c1CN(C(=O)c1ccno1)CC2`, the cytotoxicity at 70.5 h was -4.99%.

As for `CN(Cc1ccco1)[C@@H]1CN(Cc2ccoc2)C[C@@H]2CCCO[C@@H]21`, the cytotoxicity at 70.5 h is -7.61%.

For the compound `CC(=O)N(C)CC(=O)Nc1cc(C(F)(F)F)c[nH]c1=O`, the cytotoxicity at 70.5 h was -12.8%.

For `COc1nccnc1N1CCCC2(C1)C(=O)N(C)c1ccccc12` (centres undefined), the cytotoxicity at 70.5 h was -12.3%.

As for `CCOC(=O)c1nc(CC(=O)Nc2ccc3cc[nH]c3c2)no1`, the cytotoxicity at 70.5 h is -9.72%.

Take `CCC1CN(C(=O)COc2ccc(C)nc2)CCO1` (centres undefined): the cytotoxicity at 70.5 h was 0.326%.

On to `O[C@@H]1CN(Cc2cccnc2)C[C@H]1Oc1ccccc1`, for which the cytotoxicity at 70.5 h worked out at 0.823%.

Turning to `COc1cc(N(C)CCCn2nc(C)cc2C)ncn1`, the cytotoxicity at 70.5 h is -10.8%.

As for `CCN(CC)C(CNC(=O)c1ccnc(N(C)C)c1)c1ccsc1` (centres undefined), the cytotoxicity at 70.5 h was -5.28%.

On to `COc1ccnc(N2CCCN(C(=O)CCc3cnn(C)c3)CC2)n1`, for which the cytotoxicity at 70.5 h was -10.3%.

As for `Cn1cccc1C(=O)N1CCO[C@@H]2CN(Cc3nccs3)C[C@@H]2C1`, the cytotoxicity at 70.5 h was -6.7%.

`CC(NS(=O)(=O)N(C)C)c1cccc(-n2cccn2)c1` (centres undefined): the cytotoxicity at 70.5 h is -3.97%.

Regarding `CCOc1ccccc1-c1cc2c(cc1C(N)=O)OCO2`, the cytotoxicity at 70.5 h worked out at 9.52%.

`CCn1cnnc1C1CCN(C(=O)c2cnn(C(C)(C)C)c2)CC1`: the cytotoxicity at 70.5 h is -5.89%.

On to `CC(C)CNC(=O)[C@H]1CCS(=O)(=O)[C@@H]2CN(Cc3ccc(F)cc3)C[C@H]12`, for which the cytotoxicity at 70.5 h is -10.2%.

With `Cc1noc([C@@H]2C[C@H]3CN(C(=O)C4CCN(C)CC4)C[C@H]3O2)n1`, the cytotoxicity at 70.5 h was -11.3%.

Regarding `CCN1CC2(CC1=O)CN(C(C)=O)CCN(C(=O)NC)C2` (centres undefined), the cytotoxicity at 70.5 h is -3.8%.

As for `COCCN1CCO[C@H]2CCN(C(=O)c3cccs3)CC[C@@H]21`, the cytotoxicity at 70.5 h turned out to be 5.33%.

With `CCn1nc(C)c(S(=O)(=O)Nc2cccc(C(=O)O)c2C)c1C`, the cytotoxicity at 70.5 h is -2.69%.

Turning to `CNc1ncc(CN(C)c2nccc(CCC(F)(F)F)n2)cn1`, the cytotoxicity at 70.5 h was -2.35%.

In the case of `CN1CCCC(CNS(=O)(=O)N2CCc3ccccc3C2)C1` (centres undefined), the cytotoxicity at 70.5 h was -10.7%.

Take `O=C1CSC(c2ccc3c(c2)OCO3)c2cnn(C3CCCCC3)c2N1` (centres undefined): the cytotoxicity at 70.5 h was -13.7%.

`c1cc(CNc2cnc(C3CCCN3)cn2)ccn1` (centres undefined): the cytotoxicity at 70.5 h was -1.63%.

Turning to `O=C1N(c2ccc(Br)cc2)Cc2n[nH]c(=O)n21`, the cytotoxicity at 70.5 h is 23.8%.

For the compound `COc1cccc(OC2CN(C(=O)c3cc(CC(C)C)nn3C)C2)c1`, the cytotoxicity at 70.5 h was -1.49%.

For the compound `O=C(Cc1ccncc1)N1CCC2(CC1)CC(c1ccccc1)CO2` (centres undefined), the cytotoxicity at 70.5 h was determined as 19.4%.

In the case of `COc1ccccc1CN1C(=O)O[C@@H]2CN(Cc3cccc(C)n3)C[C@@H]21`, the cytotoxicity at 70.5 h worked out at 20.9%.

In the case of `CN(CCCN1CCCC1)[C@@H]1c2ccccc2C2(CCNCC2)[C@H]1O`, the cytotoxicity at 70.5 h turned out to be 14.4%.

For the compound `CS(=O)(=O)N1CCC(NCC2(N3CCOCC3)CCCCC2)CC1`, the cytotoxicity at 70.5 h is -12.3%.

`Cc1cnn(C2CN(Cc3nc(-c4ccco4)no3)C2)c1`: the cytotoxicity at 70.5 h was -10.1%.

Take `Cc1nc(C)n(C2CCCN(C(=O)COc3ccccc3)C2)n1` (centres undefined): the cytotoxicity at 70.5 h is -8.86%.

On to `Cn1nccc1C(=O)N1CCC(n2cc(-c3ccsc3)nn2)CC1`, for which the cytotoxicity at 70.5 h is -3.85%.

On to `COc1cccc(CNC2CCCOc3cc(C)ccc32)n1` (centres undefined), for which the cytotoxicity at 70.5 h was -9.25%.

Regarding `COCCN1CCN(Cc2cnc(C)nc2)CC1`, the cytotoxicity at 70.5 h is -6.04%.

In the case of `NC(=O)COc1cccc(CN2CCc3cncnc3C2)c1`, the cytotoxicity at 70.5 h was -0.423%.

For `CC(C)CCC(=O)NC(C)c1nnc2n1CCCCC2` (centres undefined), the cytotoxicity at 70.5 h was -6.87%.

For `COc1ccc(-n2ncc(C(C)NC3Cc4ccccc4C3)c2C)cc1` (centres undefined), the cytotoxicity at 70.5 h came to 5.61%.

Consider `CCOc1c(Cl)cccc1NCc1cc(C)on1`, for which the cytotoxicity at 70.5 h is 6.44%.

As for `Cn1ccnc1-c1ccccc1C(=O)N1CCc2c(nc(N)[nH]c2=O)C1`, the cytotoxicity at 70.5 h is -11.8%.

On to `O=C(CCCc1nc2ccccc2[nH]1)N1CCCC(n2cccn2)C1` (centres undefined), for which the cytotoxicity at 70.5 h is -1.12%.

On to `CCNC(=O)NC(=O)CNc1cc(C(=O)OC)cc(C(F)(F)F)c1`, for which the cytotoxicity at 70.5 h was -3.94%.

For `CNC(=O)C1CCCCN1C(=O)c1csc(-c2ccc(C)o2)n1` (centres undefined), the cytotoxicity at 70.5 h was -6.71%.

`Cn1cc(-c2nc(C3CCN(S(C)(=O)=O)CC3)cc3c2ncn3C)cn1`: the cytotoxicity at 70.5 h is 23.5%.

On to `Cc1[nH]c(=O)[nH]c(=O)c1CC(=O)N1CCC(Oc2ccc(F)cc2)CC1`, for which the cytotoxicity at 70.5 h is -12.2%.

As to `COc1ccncc1NCc1ccsc1`, the cytotoxicity at 70.5 h was -2.45%.

On to `CC(c1cccc(-c2cn(Cc3ccoc3)nn2)c1)N(C)C` (centres undefined), for which the cytotoxicity at 70.5 h is -2.66%.

These data come from ChEMBL document CHEMBL3507680, “University of Dundee, Gates Library screen for HepG2 cell viability”.
